Experimental data reported in article PMC6770091, “P-Glycoprotein 1 Affects Chemoactivities of Resveratrol against Human Colorectal Cancer Cells” (Nutrients, 2019).

Tests used:
SW620 cells [1] = assay: [3H]-resveratrol efflux measurement; assay type: in vitro ADME, human; details: after 10 min uptake of 30 µM [3H]-resveratrol
Protocol: (§1) Resveratrol efflux was examined by incubating confluent cells in 6-well plates over 10 min with 30 µM tritiated resveratrol in complete medium at 37 °C. […] At the end of the incubation period, the labeled medium was removed and the cells were washed two times with PBS. Fresh medium (37 °C or 4 °C) was then quickly added to allow the cells to efflux tritiated resveratrol from 1 to 360 min. At the end of each time point, the cells were washed and lysed in NaOH 0.1 M, Na2CO3 2%, SDS 0.1%. The cell homogenates were transferred into flasks and cell-associated radioactivity was counted in a liquid scintillation analyzer. We evaluated 60 min area under curves (AUC) by integrating exponential regression curves of [^3H]-resveratrol time course accumulation between 0 and 60 min.

HT29 cells [2] = assay: [3H]-resveratrol efflux measurement; assay type: in vitro ADME, human; details: after 10 min uptake of 30 µM [3H]-resveratrol
Protocol: as §1

HCT116 cells [3] = assay: [3H]-resveratrol efflux measurement; assay type: in vitro ADME, human; details: after 10 min uptake of 30 µM [3H]-resveratrol
Protocol: as §1

SW620 cells [4] = assay: Cytotoxicity assay, crystal violet staining; assay type: cell-based; details: Homo sapiens, SW-620, SW620, 72 h, read-out: IC50 (concentration inhibiting 50% of the tumor proliferation)
Protocol: (§2) Cell lines were seeded into 96-well plates. After 24 h of culture, the cells were treated with increasing concentrations of resveratrol for 72 h. All control and treated cells received the same volume of ethanol (0.1%). After time of treatment, cells were harvested and the toxicities were evaluated by crystal violet staining. Briefly, after treatments cells were washed with PBS 1X, stained for 5 min with a crystal violet solution (0.5% (w/v) crystal violet in 25% (v/v) methanol), and then gently rinsed with water. Absorbances were read at 540 nm with a Biochrom Asys UVM 340 spectrophotometer, after the extraction of the dye by 0.1 M sodium citrate in 50% ethanol. The inhibitory concentrations 50% (IC50) were assessed by crystal violet staining after 72 h of treatment. IC50 values were calculated by a four-parameter non-linear regression with GraphPad Prismversion 6 software (San Diego, California, CA, USA). In some experiments, after 24 h of seeding, cells were treated with resveratrol (30 µM) for 48 h before crystal violet staining. All results were expressed as percentages of control values (vehicle alone).

HT29 cells [5] = assay: Cytotoxicity assay, crystal violet staining; assay type: cell-based; details: Homo sapiens, HT-29, HT29, 72 h, read-out: IC50 (concentration inhibiting 50% of the tumor proliferation)
Protocol: as §2

SW480 cells [6] = assay: Cytotoxicity assay, crystal violet staining; assay type: cell-based; details: Homo sapiens, SW480, 72 h, read-out: IC50 (concentration inhibiting 50% of the tumor proliferation)
Protocol: as §2

HCT116 cells [7] = assay: Cytotoxicity assay, crystal violet staining; assay type: cell-based; details: Homo sapiens, HCT-116, HCT116, 72 h, read-out: IC50 (concentration inhibiting 50% of the tumor proliferation)
Protocol: as §2

SW480 cells [8] = assay: [3H]-resveratrol efflux measurement; assay type: in vitro ADME, human; details: for Vi = % of Resveratrol Efflux . min^−1: after 10 min uptake of 30 µM [3H]-resveratrol
Protocol: as §1, with “analyzer.” for “analyzer. We evaluated 60 min area under curves (AUC) by integrating exponential regression curves of [^3H]-resveratrol time course accumulation between 0 and 60 min.”

MRP2 = details: human, 30 µM
Protocol: as §1

MDR1 = details: mouse, not told, 30 µM
Protocol: as §1

BCRP = details: human, not told, 30 µM
Protocol: as §1

MRP1 = target: T1, MRP1 (Homo sapiens, UniProt P33527); assay: [3H]-resveratrol efflux, BHK 21 vs BHK21-MRP1 overexpressing clone; assay type: in vitro ADME; details: BHK 21/MRP1 vs control BHK 21, 30 µM [3H]-resveratrol, 37°C
T1 construct: expressed in transfected cells; host or cells: BHK 21 (baby hamster kidney) stably transfected clone BHK21-MRP1, provided by Dr. Attilio Di Pietro
Protocol: as §1

[9] = test system: colon carcinoma cells (all cell lines); assay: [3H]-resveratrol efflux in presence of other ABC protein inhibitors; assay type: cell-based, human

T1 sequence (P33527 whole entry): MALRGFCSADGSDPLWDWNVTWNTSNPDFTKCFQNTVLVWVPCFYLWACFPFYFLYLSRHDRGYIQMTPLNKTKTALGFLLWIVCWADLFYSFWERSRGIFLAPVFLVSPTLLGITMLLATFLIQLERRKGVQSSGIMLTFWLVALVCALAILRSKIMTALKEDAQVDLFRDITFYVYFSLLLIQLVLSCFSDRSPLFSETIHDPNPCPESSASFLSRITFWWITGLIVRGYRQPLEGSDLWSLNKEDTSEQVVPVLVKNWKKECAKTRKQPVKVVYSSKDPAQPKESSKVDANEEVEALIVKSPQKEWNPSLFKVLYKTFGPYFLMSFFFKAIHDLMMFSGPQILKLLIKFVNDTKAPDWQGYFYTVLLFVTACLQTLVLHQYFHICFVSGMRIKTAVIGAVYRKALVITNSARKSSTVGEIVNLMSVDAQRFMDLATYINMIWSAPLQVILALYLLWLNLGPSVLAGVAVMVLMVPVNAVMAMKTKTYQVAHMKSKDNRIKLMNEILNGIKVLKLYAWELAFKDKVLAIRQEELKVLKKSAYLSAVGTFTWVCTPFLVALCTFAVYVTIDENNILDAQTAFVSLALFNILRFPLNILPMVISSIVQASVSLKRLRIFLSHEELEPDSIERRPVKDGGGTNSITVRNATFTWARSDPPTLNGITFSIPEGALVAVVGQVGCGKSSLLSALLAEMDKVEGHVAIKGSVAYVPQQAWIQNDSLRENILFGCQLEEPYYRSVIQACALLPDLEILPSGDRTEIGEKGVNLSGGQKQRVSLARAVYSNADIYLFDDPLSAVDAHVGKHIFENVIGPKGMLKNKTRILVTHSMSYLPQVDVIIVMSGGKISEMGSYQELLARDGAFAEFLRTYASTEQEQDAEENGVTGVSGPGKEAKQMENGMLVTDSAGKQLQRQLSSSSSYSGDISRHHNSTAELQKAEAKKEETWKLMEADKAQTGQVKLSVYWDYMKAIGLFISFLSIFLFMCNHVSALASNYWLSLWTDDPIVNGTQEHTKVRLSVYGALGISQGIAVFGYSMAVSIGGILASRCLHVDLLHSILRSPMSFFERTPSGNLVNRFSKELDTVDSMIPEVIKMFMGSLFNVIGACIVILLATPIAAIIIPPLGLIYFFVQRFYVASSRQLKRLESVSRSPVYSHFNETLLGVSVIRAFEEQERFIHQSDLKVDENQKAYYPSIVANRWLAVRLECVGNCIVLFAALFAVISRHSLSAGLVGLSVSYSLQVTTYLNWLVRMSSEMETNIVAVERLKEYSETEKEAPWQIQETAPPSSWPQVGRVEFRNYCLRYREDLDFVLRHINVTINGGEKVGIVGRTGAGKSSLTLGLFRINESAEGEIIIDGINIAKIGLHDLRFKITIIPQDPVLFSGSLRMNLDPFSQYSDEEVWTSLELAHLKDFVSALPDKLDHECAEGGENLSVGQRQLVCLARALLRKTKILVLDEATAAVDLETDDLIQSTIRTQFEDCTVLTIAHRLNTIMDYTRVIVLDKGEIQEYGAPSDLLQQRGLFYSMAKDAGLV

Oc1ccc(/C=C/c2cc(O)cc(O)c2)cc1 [RSV, trans 3,5,4′ trihydroxystilbene]
Vi = % of Resveratrol Efflux . min^−1 (SW620 cells [1]; SW620, 4°C): 2.8 % of Resveratrol Efflux . min^−1 | Vi = % of Resveratrol Efflux . min^−1 (SW620 cells [1]; SW620, 37 °C): 5.7 % of Resveratrol Efflux . min^−1 | Vi = % of Resveratrol Efflux . min^−1 (HT29 cells [2]; HT29, 4°C): 4.3 % of Resveratrol Efflux . min^−1 | Vi = % of Resveratrol Efflux . min^−1 (HT29 cells [2]; HT29, 37 °C): 5.9 % of Resveratrol Efflux . min^−1 | Vi = % of Resveratrol Efflux . min^−1 (HCT116 cells [3]; HCT116, 4°C): 2.6 % of Resveratrol Efflux . min^−1 | Vi = % of Resveratrol Efflux . min^−1 (HCT116 cells [3]; HCT116, 37 °C): 6.4 % of Resveratrol Efflux . min^−1 | IC50 (SW620 cells [4]): ~20 µM | IC50 (HT29 cells [5]): ~40 µM | IC50 (SW480 cells [6]): ~70 µM | IC50 (HCT116 cells [7]): ~25 µM | Vi = % of Resveratrol Efflux . min^−1 (SW480 cells [8]; SW480, 4°C): 4.7 % of Resveratrol Efflux . min^−1 | Vi = % of Resveratrol Efflux . min^−1 (SW480 cells [8]; SW480, 37 °C): 6.3 % of Resveratrol Efflux . min^−1 | AUC (0-60 min, intracellular RSV level) diminished between control cells and MRP2 overexpressing one (MRP2): 1.2 fold | inhibition of RSV accumulation (AUC 0-60 min of intracellular RSV level) by transporter overexpression (MDR1): 1.7 fold | inhibition of RSV accumulation (AUC 0-60 min of intracellular RSV level) by transporter overexpression (BCRP): 1.7 fold | effect of MRP1 overexpression on intracellular RSV level (MRP1): early slight effect

COc1ccc2c(c1)c(CC(=O)O)c(C)n2C(=O)c1ccc(Cl)cc1 [indomethacin, reference compound]
inhibition of the release of RSV (SW480 cells [8]; SW480, inhibitor 20 µM pretreatment 10 min, 5 min efflux at 37 °C): 1.8 fold

[O]=[V]([O-])([O-])[O-] [orthovanadate]
effect on resveratrol retention [9]: enhance resveratrol retention

C[C@@H]1O[C@@H](O[C@H]2C[C@@H](O)[C@]3(CO)[C@H]4[C@H](O)C[C@]5(C)[C@@H](C6=CC(=O)OC6)CC[C@]5(O)[C@@H]4CC[C@]3(O)C2)[C@H](O)[C@H](O)[C@H]1O [ouabain]
effect on resveratrol retention [9]: enhance resveratrol retention

CCCN(CCC)S(=O)(=O)c1ccc(C(=O)O)cc1 [probenicid]
effect on resveratrol retention [9]: enhance resveratrol retention

O=c1c(O)c(-c2ccc(O)c(O)c2)oc2cc(O)cc(O)c12 [quercetin]
effect on resveratrol retention [9]: enhance resveratrol retention

C=C[C@H]1C[N@@]2CC[C@H]1C[C@H]2[C@H](O)c1ccnc2ccc(OC)cc12 [quinine]
effect on resveratrol retention [9]: enhance resveratrol retention
